Results reported in patent US10730884B2, “Substituted indole compound derivatives as dengue viral replication inhibitors” (Janssen Pharmaceuticals, Inc., priority 2016, dated 2020).
pEC50: −log10 of the molar value. Read-outs that look alike come from different tables or passages of the source.

How the values were obtained:
DENV-2 16681 strain = assay: DENV-2 antiviral assay (eGFP-labeled virus, Vero cells); assay type: cell-based, Dengue virus; conditions: for pEC50: DENV-2 16681 eGFP, Vero cells, MOI 0.5, 3 days; for SI: SI=CC50/EC50, DENV-2 antiviral assay
Description: The antiviral activity of all the compounds of the invention was tested against the DENV-2 16681 strain which was labeled with enhanced green fluorescent protein (eGPF). The culture medium consists of minimal essential medium supplemented with 2% of heat-inactivated fetal calf serum, 0.04% gentamycin (50 mg/mL) and 2 mM of L-glutamine. Vero cells, obtained from ECACC, were suspended in culture medium and 25 μL was added to 384-well plates (2500 cells/well), which already contain the antiviral compounds. Typically, these plates contain a 5-fold serial dilution of 9 dilution steps of the test compound at 200 times the final concentration in 100% DMSO (200 nL). […] Finally, each plate contains wells which are assigned as virus controls (containing cells and virus in the absence of compound), cell controls (containing cells in the absence of virus and compound) and medium controls (containing medium in the absence of cells, virus and compounds). To the wells assigned as medium control, 25 μL of culture medium was added instead of Vero cells. Once the cells were added to the plates, the plates were incubated for 30 minutes at room temperature to allow the cells to distribute evenly within the wells. Next, the plates were incubated in a fully humidified incubator (37° C., 5% CO2) until the next day. Then, DENV-2 strain 16681, labeled with eGFP, was added at a multiplicity of infection (MOI) of 0.5. Therefore, 15 μL of virus suspension was added to all the wells containing test compound and to the wells assigned as virus control. In parallel, 15 μL of culture medium was added to the medium and cell controls. Next, the plates were incubated for 3 days in a fully humidified incubator (37° C., 5% CO2). At the day of the read out, the eGFP fluorescence was measured using an automated fluorescence microscope at 488 nm (blue laser). Using an in-house LIMS system, inhibition dose response curves for each compound were calculated and the half maximal effective concentration (EC50) was determined. Therefore, the percent inhibition (I) for every test concentration is calculated using the following formula: I=100*([…])/(SVC−SCC); ST, SCC and SVC are the amount of eGFP signal in the test compound, cell control and virus control wells, respectively. The EC50 represents the concentration of a compound at which the virus replication is inhibited with 50%, as measured by a 50% reduction of the eGFP fluorescent intensity compared to the virus control. The EC50 is calculated using linear interpolation (Table 1).

in vitro [1] = conditions: African green monkey
in vitro [2] = assay type: cell-based; conditions: African green monkey, CC50
Description: (§1) The antiviral activity of the compounds of the invention was tested against DENV-1 strain TC974#666 (NCPV), DENV-2 strain 16681, DENV-3 strain H87 (NCPV) and DENV-4 strain H241 (NCPV) in a RT-qPCR assay. Therefore, Vero cells were infected with either DENV-1, or -2, or -3, or -4 in the presence or absence of test compounds. At day 3 post-infection, the cells were lysed and cell lysates were used to prepare cDNA of both a viral target (the 3′UTR of DENV; Table 2) and a cellular reference gene (β-actin, Table 2). Subsequently, a duplex real time PCR was performed on a Lightcycler480 instrument. The generated Cp value is inversely proportional to the amount of RNA expression of these targets. Inhibition of DENV replication by a test compound result in a shift of Cp's for the 3′UTR gene. On the other hand, if a test compound is toxic to the cells, a similar effect on β-actin expression will be observed. The comparative ΔΔCp method is used to calculate EC50, which is based on the relative gene expression of the target gene (3′UTR) normalized with the cellular housekeeping gene (β-actin). In addition, CC50 values are determined based on the Cp values acquired for the housekeeping gene β-actin.
(§2) The culture medium consisted of minimal essential medium supplemented with 2% of heat-inactivated fetal calf serum, 0.04% gentamycin (50 mg/mL) and 2 mM of L-glutamine. Vero cells, obtained from ECACC, were suspended in culture medium and 75 μL/well was added in 96-well plates (10000 cells/well), which already contain the antiviral compounds. […] In addition, each plate contains wells which are assigned as virus controls (containing cells and virus in the absence of compound) and cell controls (containing cells in the absence of virus and compound). Once the cells were added in the plates, the plates were incubated in a fully humidified incubator (37° C., 5% CO2) until the next day. Dengue viruses serotype-1, 2, 3 and 4 were diluted in order to obtain a Cp of ˜22-24 in the assay. Therefore, 25 μL of virus suspension was added to all the wells containing test compound and to the wells assigned as virus control. In parallel, 25 μL of culture medium was added to the cell controls. Next, the plates were incubated for 3 days in a fully humidified incubator (37° C., 5% CO2). After 3 days, the supernatant was removed from the wells and the cells were washed twice with ice-cold PBS (˜100 μL). The cell pellets within the 96-well plates were stored at −80° C. for at least 1 day. Next, RNA was extracted using the Cells-to-CT™ lysis kit, according to the manufacturer's guideline (Life Technologies). The cell lysates can be stored at −80° C. or immediately used in the reverse transcription step.
(§3) Using the LightCycler software and an in-house LIMS system, dose response curves for each compound were calculated and the half maximal effective concentration (EC50) and the half maximal cytotoxic concentration (CC50) were determined (Tables 5-8).

DENV-3 strain H87 = assay: Tetravalent RT-qPCR assay, serotype 3; assay type: cell-based, Dengue virus; conditions: for pEC50: Dengue virus, DENV3, Vero, 72 h, RT-qPCR serotype 3 H87, Protocol A, Vero cells, day 3, read-out: EC50; for SI: RT-qPCR serotype 3 H87
Description: as §1, §2
(§4) In preparation of the reverse transcription step, mix A (table 3A) was prepared and 7.57 μL/well was dispensed in a 96-well plate. After addition of 5 μL of the cell lysates, a five minute denaturation step at 75° C. was performed (table 3B). Afterwards, 7.43 μL of mix B was added (table 3C) and the reverse transcription step was initiated (table 3D) to generate cDNA.
(§5) Finally, a RT-qPCR mix was prepared, mix C (table 4A), and 22.02 μL/well was dispensed in 96-well LightCycler qPCR plates to which 3 μL of cDNA was added and the qPCR was performed according to the conditions in table 4B on a LightCycler 480.
as §3

DENV-4 strain H241 = assay: Tetravalent RT-qPCR assay, serotype 4; assay type: cell-based, Dengue virus; conditions: for pEC50: Dengue virus, DENV4, Vero, 72 h, RT-qPCR serotype 4 H241, Protocol A, Vero cells, day 3; for SI: RT-qPCR serotype 4 H241
Description: as §1, §2, §4, §5, §3

DENV-1 strain TC974#666 = assay: Tetravalent RT-qPCR assay, serotype 1; assay type: cell-based, Dengue virus; conditions: for pEC50: Dengue virus, DENV1, Vero, 72 h, RT-qPCR serotype 1 TC974#666, Protocol A, Vero cells, day 3, read-out: EC50; for SI: RT-qPCR serotype 1 TC974#666
Description: as §1, §2, §4, §5, §3

DENV-2 strain 16681 = assay: Tetravalent RT-qPCR assay, serotype 2; assay type: cell-based, Dengue virus; conditions: for pEC50: Dengue virus, DENV2, Vero, 72 h, RT-qPCR serotype 2 16681, Protocol A, Vero cells, day 3; for SI: RT-qPCR serotype 2 16681
Description: as §1, §2, §4, §5, §3

Vero cells [3] = conditions: African green monkey
Vero cells [4] = assay: in vitro; assay type: cell-based; conditions: African green monkey, 3 days
Description: as §1, §2, §3

DENV-2 = conditions: analogous DENV-2 antiviral assay, reported activity; cited from earlier work
[5] = Dengue virus, DENV2, Vero, 72 h

Structure (SMILES) | pEC50 (DENV-2 16681 strain; [5]) | SI (DENV-2 16681 strain) | melting point [°C] | CC50 (in vitro [1]) [nM] | CC50 at 3 days (in vitro [2]) [nM] | pEC50 (DENV-3 strain H87) | SI (DENV-3 strain H87) | pEC50 (DENV-2 16681 strain) | pEC50 (DENV-4 strain H241) | SI (DENV-4 strain H241) | pEC50 (DENV-1 strain TC974#666) | SI (DENV-1 strain TC974#666) | pEC50 (DENV-2 strain 16681) | SI (DENV-2 strain 16681) | CC50 (Vero cells [3]) [nM] | CC50 (Vero cells [4]) [nM] | pEC50 (DENV-2) | SI (DENV-2)
COc1cc(NC(C(=O)c2c[nH]c3c(C)cc(Cl)cc23)c2ccc(F)cc2OC)cc(OCCO)c1 (racemic) [Compound 1, 1-(5-chloro-7-methyl-1H-indol-3-yl)-2-(4-fluoro-2-methoxyphenyl)-2-((3-(2-hydroxyethoxy)-5-methoxyphenyl)amino)ethanone] | 8.57 | 1800 | 118 | 4900 | – | – | – | – | – | – | – | – | – | – | – | – | – | –
COc1cc(NC(C(=O)c2c[nH]c3cc(OC)c(Cl)cc23)c2ccc(F)cc2OC)cc(OCCO)c1 (racemic) [Compound 2, 1-(5-chloro-6-methoxy-1H-indol-3-yl)-2-(4-fluoro-2-methoxyphenyl)-2-((3-(2-hydroxyethoxy)-5-methoxyphenyl)amino)ethanone] | 8.82 | 4410 | 210 | 6700 | – | – | – | – | – | – | – | – | – | – | – | – | – | –
COc1cc(NC(C(=O)c2c[nH]c3cc(F)c(C)cc23)c2ccc(F)cc2OC)cc(OCCO)c1 (racemic) [Compound 3, 2-(4-fluoro-2-methoxyphenyl)-1-(6-fluoro-5-methyl-1H-indol-3-yl)-2-((3-(2-hydroxyethoxy)-5-methoxyphenyl)amino)ethanone] | 8.46 | 1140 | 197 | 4000 | – | – | – | – | – | – | – | – | – | – | – | – | – | –
COc1cc(NC(C(=O)c2c[nH]c3ccc(C)cc23)c2ccc(F)cc2OC)cc(OCCO)c1 (racemic) [Compound 5, 2-(4-fluoro-2-methoxyphenyl)-2-((3-(2-hydroxyethoxy)-5-methoxyphenyl)amino)-1-(5-methyl-1H-indol-3-yl)ethanone] | 8.32 | 3190 | 199 | 14000 | – | – | – | – | – | – | – | – | – | – | – | – | – | –
COc1cc(NC(C(=O)c2c[nH]c3cc(F)c(C)cc23)c2ccc(Cl)cc2OC)cc(OCCO)c1 (racemic) [Compound 9, 2-(4-chloro-2-methoxyphenyl)-1-(6-fluoro-5-methyl-1H-indol-3-yl)-2-((3-(2-hydroxyethoxy)-5-methoxyphenyl)amino)ethanone] | 8.92 | 2480 | 177 | 3100 | – | – | – | – | – | – | – | – | – | – | – | – | – | –
COc1cc(NC(C(=O)c2c[nH]c3c(C)cc(Cl)cc23)c2ccc(F)cc2OC)cc(OCCO)c1 (single isomer, unassigned) [Compound 1A] | – | 2070 | – | – | 2900 | 7.41 | 49 | 8.77 | 6.66 | 8.7 | 8.21 | 461 | 8.49 | 1080 | 3600 | – | – | –
COc1cc(NC(C(=O)c2c[nH]c3cc(OC)c(Cl)cc23)c2ccc(F)cc2OC)cc(OCCO)c1 (single isomer, unassigned) [Compound 2A] | – | 6340 | – | – | 2900 | 7.47 | 90 | 9.15 | 6.64 | 9.1 | 8.04 | 350 | 9.00 | 3350 | 4500 | – | – | –
COc1cc(NC(C(=O)c2c[nH]c3cc(OC(F)(F)F)c(C)cc23)c2ccc(F)cc2OC)cc(OCCO)c1 (single isomer, unassigned) [Compound 4B] | – | 409 | – | – | 3800 | 6.92 | 16 | 8.09 | 6.52 | 8.1 | 7.62 | 128 | 8.18 | 553 | 3300 | – | – | –
COc1cc(NC(C(=O)c2c[nH]c3cc(OC)c(C)c(F)c23)c2ccc(Cl)cc2OC)cc(OCCO)c1 (single isomer, unassigned) [Compound 12B] | – | >48400 | – | – | > 2200 | 7.70 | >106 | 9.59 | 6.74 | >15 | 8.31 | >508 | 9.60 | >12200 | 4600 | > 2500 | – | –
COc1cc(NC(C(=O)c2c[nH]c3ccccc23)c2ccc(F)cc2)cc(OCCO)c1 (centres unmarked) [(350) of WO-2013/045516] | – | – | – | – | – | – | – | – | – | – | – | – | – | – | – | – | 8.00 | 3462
